Counter-ions that a name gives are not always drawn.
Tested on: dogs with advanced heart failure
Assay: Dose escalation / bolus plus infusion study, hemodynamic and ventriculographic measures
Format: in vivo, dog
Settings: for Effect on EF (LVEF) / Effect on ESV: dose dependent; for Hemodynamic and ventriculographic benefits after discontinuation: one hour after discontinuation of infusion
Protocol: Studies were performed in purpose-bred, healthy and conditioned mongrel dogs weighing between 20 and 30 kg. The study was approved by Henry Ford Health System Institutional Animal Care and Use Committee and conformed to the National Institute of Health “Guide and Care for Use of Laboratory Animals” and the “Position of the American Heart Association on Research Animal Use” (Position of the American Heart Association on Research Animal Use. Circulation 1985; 71; 49A-50A).
Chronic LV dysfunction and failure was produced by multiple sequential intracoronary embolizations with polystyrene Latex; coronary microembolizations were performed during cardiac catheterization under general anesthesia and sterile conditions (Sabbah H N, et al. Am J Physiol (1991) 260:H1379-84; Sabbah H N, et al. Circulation (1994) 89:2852-9; Sabbah H N, et al. Am J Cardiol 99:41 A-46A, (2007)). Anesthesia was induced using a combination of intravenous injections of oxymorphone hydrochloride (0.22 mg/kg) and diazepam (0.2-0.6 mg/kg). Plane of anesthesia was maintained throughout the study using 1% to 2% isoflurane. Left and right heart catheterizations were performed via a femoral arteriotomy and venotomy. Coronary microembolizations were discontinued when LV ejection fraction, determined angiographically, was about 25%. A period of 2 weeks was allowed after the last microembolization to ensure that infarctions produced by the last microembolizations have completely healed and heart failure was established before the study is undertaken.
Eight heart failure dogs described in Example 1 were used. Seven of 8 dogs underwent two studies, one with active drug GP-531 tartrate and one with vehicle (placebo) and 1 of 8 dogs underwent only one active drug GP-531 study. The order of active drug and placebo was randomized and performed about one week apart. In 6 of 8 dogs, after baseline hemodynamic, and ventriculographic measurements, vehicle was administered as a continuous intravenous infusion for one hour. At the end of one hour, the active drug GP-531 tartrate was administered in 3 escalating dose of continuous intravenous infusion with each dose maintained for one hour. At the end of the last drug dose, infusion was stopped and a washout period of one hour was instituted. The same infusion rates and times between doses were used when vehicle studies were performed. At the end of each hour, hemodynamic and angiographic measurements were made. Venous blood samples were obtained at baseline and at one hour after each dose. Blood samples (at least 10 mL) were centrifuged at 3000 rpm for 10 minutes and plasma withdrawn and placed in cryostorage tubes and stored upright at −20° C. for future use. In 2 of 8 dogs, active drug was administered as bolus followed by a constant infusion for 3 hours as noted below.
Active drug was used in dog groups as follows:
1. In 3 of 8 dogs, escalating doses of 30, 100 and 300 μg/kg/min GP-531 tartrate were used (Group I)
2. In another 3 of 8 dogs, escalating doses of 3, 10 and 30 μg/kg/min GP-531 tartrate were used (Group II).
3. In 1 of 8 dogs, active drug was administered as 700 μg/kg GP-531 tartrate bolus followed by a constant infusion of 10 μg/kg/min GP-531 tartrate for 3 hours.
4. In another 1 of 8 dogs, two active drug studies were performed. In one study, active drug was administered as 70 μg/kg bolus followed by a constant infusion of 1.0 μg/kg/min for 4 hours and in the second study, active drug was administered as 210 μg/kg bolus followed by a constant infusion of 3.0 μg/kg/min for 4 hours.
Study Primary End-Points were: (1) change in LV ejection fraction determined from ventriculography and (2) change in LV end-systolic and end-diastolic volume determined from ventriculography.
All hemodynamic measurements were made during left and right heart catheterizations in anesthetized dogs at each specified study time point. […]

[1] = 1 HF dog, 210 μg/kg bolus then 3.0 μg/kg/min for 4 h
[2] = 1 HF dog, 210 μg/kg bolus then 3.0 μg/kg/min, end of 4 h
[3] = 1 HF dog, 700 μg/kg bolus then constant infusion 10 m/kg/min (so in the source) for 3 h
[4] = 1 HF dog, 700 μg/kg bolus then constant infusion 10 m/kg/min (so in the source), end of 3 h
[5] = Group I HF dogs n=3, 1 h washout after 30/100/300 μg/kg/min
[6] = Group I HF dogs n=3, escalating 30, 100, 300 μg/kg/min, vs baseline
[7] = Group I HF dogs n=3, escalating 30, 100, 300 μg/kg/min, vs baseline, listed as GP-531 tartrate salt
[8] = Group II HF dogs n=3, 1 h washout after 3/10/30 μg/kg/min
[9] = Group II HF dogs n=3, escalating 3, 10, 30 μg/kg/min, not statistically significant vs baseline
[10] = Group II HF dogs n=3, escalating 3, 10, 30 μg/kg/min, vs baseline
[11] = Group I HF dogs n=3, iv 30 μg/kg/min, 1 h
[12] = Group I HF dogs n=3, iv 100 μg/kg/min, 1 h
[13] = Group I HF dogs n=3, iv 300 μg/kg/min, 1 h
[14] = Group II HF dogs n=3, iv 3 μg/kg/min, 1 h
[15] = Group II HF dogs n=3, iv 10 μg/kg/min, 1 h
[16] = Group II HF dogs n=3, iv 30 μg/kg/min, 1 h

Structure (SMILES): NC(=O)c1ncn(C2OC(CNCc3ccccc3)C(O)C2O)c1N (stereo not drawn) [GP-531 tartrate]
- Effect on CO [1]: minimal or modest changes
- Effect on HR [1]: modest reduction
- Effect on LVEDP [1]: modest reduction
- Effect on SV [1]: minimal or modest changes
- Effect on SVR [1]: minimal or modest changes
- Effect on mAoP [1]: modest reduction
- Effect on EDV [2]: essentially no change
- Increase in EF [2]: 44%
- Reduction in ESV [2]: ~20%
- Effect on CO [3]: minimal or modest changes
- Effect on HR [3]: modest reduction
- Effect on LVEDP [3]: substantial drop
- Effect on SV [3]: minimal or modest changes
- Effect on SVR [3]: minimal or modest changes
- Effect on mAoP [3]: modest reduction
- Increase in EF [4]: 30%
- Reduction in EDV [4]: ~10%
- Reduction in ESV [4]: 20%
- Cardiac output (CO) [5]: 1.72 ± 0.17 L/min
- Heart rate (HR) [5]: 85 ± 7 beats/min
- LV end-diastolic pressure (LVEDP) [5]: 13 ± 1 mmHg
- LV end-diastolic volume (EDV) [5]: 70 ± 5 mL
- LV end-systolic volume (ESV) [5]: 49 ± 4 mL
- Mean aortic pressure (mAoP) [5]: 73 ± 6 mmHg
- Stroke volume (SV) [5]: 20 ± 2 mL
- Systemic vascular resistance (SVR) [5]: 3445 ± 310 dynes-sec-cm^−5
- Effect on CO [6]: significant increase
- Effect on EDV [6]: modest and not statistically significant effect on reducing
- Effect on HR [6]: no effect
- Effect on LVEDP [6]: significantly decreased
- Effect on SV [6]: significant increase
- Effect on SVR [6]: decrease
- Effect on mAoP [6]: no effect
- Effect on EF (LVEF) [6]: increased
- Effect on ESV [6]: significantly decreased
- Effect on EF (LVEF) [7]: increase
- Effect on ESV [7]: significant decrease
- Hemodynamic and ventriculographic benefits after discontinuation (Group I HF dogs): attenuated but in many instances remained significantly better than baseline values
- Cardiac output (CO) [8]: 1.50 ± 0.02 L/min
- Heart rate (HR) [8]: 80 ± 5 beats/min
- LV end-diastolic pressure (LVEDP) [8]: 12 ± 1 mmHg
- LV end-diastolic volume (EDV) [8]: 59 ± 4 mL
- LV end-systolic volume (ESV) [8]: 40 ± 2 mL
- Mean aortic pressure (mAoP) [8]: 66 ± 3 mmHg
- Stroke volume (SV) [8]: 19 ± 2 mL
- Systemic vascular resistance (SVR) [8]: 3511 ± 176 dynes-sec-cm^−5
- Effect on CO [9]: modestly increased
- Effect on SV [9]: modestly increased
- Effect on SVR [9]: modestly decreased
- Effect on EDV [10]: no effects
- Effect on HR [10]: no effect
- Effect on LVEDP [10]: significantly decreased
- Effect on mAoP [10]: no effect
- Effect on EF (LVEF) [10]: increased
- Effect on ESV [10]: significantly decreased
- Effect on EF (LVEF) (Group II HF dogs n=3, escalating 3, 10, 30 μg/kg/min, vs baseline, listed as GP-531 tartrate salt): increase
- Hemodynamic and ventriculographic benefits after discontinuation (Group II HF dogs): attenuated but in many instances remained significantly better than baseline values
- Adverse positive chronotropic effects (HF dogs, iv 3 to 300 μg/kg/min): not associated with any adverse positive chronotropic effects
- LV systolic function (HF dogs, iv 3 to 300 μg/kg/min over at least one hour): can improve LV systolic function
- Effect on LVEF (FIG. 3) (bolus injection 700 μg/kg followed by 3 hour constant infusion 10 μg/kg/min): increase

Structure (SMILES): NC(=O)c1ncn(C2OC(CNCc3ccccc3)C(O)C2O)c1N [GP-531, 5-amino-1-β-D-(5-benzylamino-5-deoxy-1-β-D-ribofuranosyl)imidazole-4 carboxamide]
- Effect on hemodynamic or ventriculographic measures of LV function (1 HF dog, 70 μg/kg bolus then 1.0 μg/kg/min for 4 h): no effects
- Cardiac output (CO) [11]: 1.90 ± 0.19 L/min
- Heart rate (HR) [11]: 88 ± 9 beats/min
- LV end-diastolic pressure (LVEDP) [11]: 11 ± 1 mmHg
- LV end-diastolic volume (EDV) [11]: 69 ± 6 mL
- LV end-systolic volume (ESV) [11]: 47 ± 4 mL
- Mean aortic pressure (mAoP) [11]: 70 ± 2 mmHg
- Stroke volume (SV) [11]: 22 ± 2 mL
- Systemic vascular resistance (SVR) [11]: 2995 ± 213 dynes-sec-cm^−5
- Cardiac output (CO) [12]: 2.06 ± 0.28 L/min
- Heart rate (HR) [12]: 90 ± 9 beats/min
- LV end-diastolic pressure (LVEDP) [12]: 10 ± 1 mmHg
- LV end-diastolic volume (EDV) [12]: 68 ± 4 mL
- LV end-systolic volume (ESV) [12]: 45 ± 4 mL
- Mean aortic pressure (mAoP) [12]: 69 ± 2 mmHg
- Stroke volume (SV) [12]: 23 ± 1 mL
- Systemic vascular resistance (SVR) [12]: 2792 ± 360 dynes-sec-cm^−5
- Cardiac output (CO) [13]: 2.06 ± 0.22 L/min
- Heart rate (HR) [13]: 88 ± 6 beats/min
- LV end-diastolic pressure (LVEDP) [13]: 11 ± 1 mmHg
- LV end-diastolic volume (EDV) [13]: 68 ± 4 mL
- LV end-systolic volume (ESV) [13]: 44 ± 4 mL
- Mean aortic pressure (mAoP) [13]: 73 ± 3 mmHg
- Stroke volume (SV) [13]: 23 ± 1 mL
- Systemic vascular resistance (SVR) [13]: 2886 ± 67 dynes-sec-cm^−5
- Cardiac output (CO) [14]: 1.47 ± 0.09 L/min
- Heart rate (HR) [14]: 80 ± 2 beats/min
- LV end-diastolic pressure (LVEDP) [14]: 12 ± 1 mmHg
- LV end-diastolic volume (EDV) [14]: 62 ± 2 mL
- LV end-systolic volume (ESV) [14]: 43 ± 2 mL
- Mean aortic pressure (mAoP) [14]: 70 ± 3 mmHg
- Stroke volume (SV) [14]: 18 ± 1 mL
- Systemic vascular resistance (SVR) [14]: 3870 ± 366 dynes-sec-cm^−5
- Cardiac output (CO) [15]: 1.45 ± 0.06 L/min
- Heart rate (HR) [15]: 82 ± 6 beats/min
- LV end-diastolic pressure (LVEDP) [15]: 12 ± 1 mmHg
- LV end-diastolic volume (EDV) [15]: 58 ± 4 mL
- LV end-systolic volume (ESV) [15]: 39 ± 3 mL
- Mean aortic pressure (mAoP) [15]: 65 ± 2 mmHg
- Stroke volume (SV) [15]: 19 ± 1 mL
- Systemic vascular resistance (SVR) [15]: 3379 ± 26 dynes-sec-cm^−5
- Cardiac output (CO) [16]: 1.64 ± 0.06 L/min
- Heart rate (HR) [16]: 80 ± 3 beats/min
- LV end-diastolic pressure (LVEDP) [16]: 12 ± 2 mmHg
- LV end-diastolic volume (EDV) [16]: 57 ± 4 mL
- LV end-systolic volume (ESV) [16]: 36 ± 3 mL
- Mean aortic pressure (mAoP) [16]: 69 ± 3 mmHg
- Stroke volume (SV) [16]: 21 ± 2 mL
- Systemic vascular resistance (SVR) [16]: 3388 ± 235 dynes-sec-cm^−5
- De-novo ventricular arrhythmias (HF dogs, iv 3 to 300 μg/kg/min): without triggering de-novo ventricular arrhythmias
- Hypotension (HF dogs, iv 3 to 300 μg/kg/min): without inducing hypotension
